The values that follow are results of earlier work, collected in patent US6565840B1, “Monomeric compositions effective as wound closure devices” (Closure Medical Corporation, priority 1996, dated 2003).

A word on the pKa: it is the pH at which an ionisable group is half protonated.

In the case of `CC(=O)C(C(C)=O)C(C)=O` [triacetylmethane], the pKa is 5.9.
